Consider 13 molecules from patent EP2582674B1 (Cymabay Therapeutics, Inc., priority 2010, dated 2011).

For orientation: EC50 means the concentration needed to bring the measured effect to its halfway point.

One experiment addresses T1, human GPR120 (Homo sapiens, UniProt Q5NUL3).
T1 construct: host or cells: HEK293 cells co-expressing Gqi5
T1 sequence (Q5NUL3 1-361): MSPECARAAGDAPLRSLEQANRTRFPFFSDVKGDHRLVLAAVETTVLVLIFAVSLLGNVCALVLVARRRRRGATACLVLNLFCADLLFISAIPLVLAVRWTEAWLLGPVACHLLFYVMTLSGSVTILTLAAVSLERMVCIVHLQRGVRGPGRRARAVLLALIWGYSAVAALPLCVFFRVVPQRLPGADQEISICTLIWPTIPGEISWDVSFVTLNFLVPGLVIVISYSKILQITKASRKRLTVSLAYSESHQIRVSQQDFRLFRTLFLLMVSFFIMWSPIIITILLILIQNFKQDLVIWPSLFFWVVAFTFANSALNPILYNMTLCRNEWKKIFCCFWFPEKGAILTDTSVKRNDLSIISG
In words: Intracellular Ca2+ assay in human GPR120 stable cell line (FLIPR Calcium 4 dye, Flexstation). As to conditions: HEK293, % activity at 2.5 µM compared to the maximal activity of the compound of Example 25 at 2.5 µM (=100%); HEK293 cells co-expressing Gqi5; read-out: % Activity (Ex. 25 Reference Compound). The format is cell-based. How it is done: Human GPR120 stable cell line was purchased from Multispan Inc (26219 Eden Landing Road, Hayward, CA94545). This GPR120 cell line was generated in HEK293 cells co-expressing Gqi5. In this cell line, the Flag epitope tag (DYKDDDDK) was fused to the amino terminus of human GPR120 protein.
The concentration of intracellular Ca^2+ was measured as described below. Human GPR120 cells were plated in 96 well plates (Poly-D-Lysine coated black/clear Plate, Greiner Bio-One) at 70,000 cells per well and cultured overnight in conditions of 37°C and 5% CO2. A Ca^2+ assay dye stock solution was prepared by adding 10 mL of assay buffer (HBSS/20mM HEPES, pH 7.4) to FLIPR Calcium 4 Assay Bulk Kit (Molecular Devices). The 10 mL of Ca^2+ assay dye solution was prepared by further diluting 0.5 mL of Ca^2+ assay dye stock solution with 10 mL of assay buffer. The medium of the cells was removed and immediately 100 µL of the Ca^2+ assay dye solution was dispensed into each well followed by incubation at 37°C and 5% CO2 for 50 minutes to incorporate the Ca^2+ dye into the cells. The cell plate was then placed in the Flexstation (Molecular Devices) for 20 minutes at 37°C. Compounds were dissolved in 100% DMSO and diluted to desired concentrations with assay buffer and placed in the Flexstation simultaneously with the cell plate for 20 minute incubation at 37°C prior to reading. Fluorescence intensity was measured immediately following compound addition (25 µL/well) on the Flexstation at an excitation wavelength of 485 nm and an emission wavelength of 525 with 515 nm auto cutoff. The resulting increase in fluorescence intensities corresponds to increases in intracellular Ca^2+ levels.
Compounds were dissolved in 100% DMSO to a concentration of 20 mM to provide stock solutions. To determine activity against human GPR120, compounds were added with human GPR120 stably expressing cells (described above), at eight desired concentrations ranging from 0.00001 to 20 µM, in 96 well plates and fluorescence intensities were measured for 90 seconds with 2-second intervals. An EC50 value (concentration of the GPR120 agonist where 50% of the agonist's maximal activity is observed) was calculated using the changes (Max-Min) of fluorescence intensity.
To determine percent activity for a tested compound, the fluorescence intensity value obtained at a particular concentration were compared to the maximal fluorescence intensity value obtained for reference compound GW9508 (4-[[(3-phenoxyphenyl)methyl]amino]benzene propanoic acid; British Journal of Pharmacology 2006 148, 619-628) or the compound of Example 25. When GW9508 was used as the reference compound, the maximal activity of GW9508 at 6.7µM was designated as 100% activity. When the compound of Example 25 was used as the reference compound, the maximal activity of the compound of Example 25 at 2.5 µM was designated as 100% activity. Typically, the GW9508 activity reached a maximum at a concentration of approximately 6.7 µM and typically the compound of Example 25 reached a maximum activity at approximately 2.5µM. […]
As to `CC1(C)Cc2cc(Cl)cc(COc3c(F)cc(C4CC4CC(=O)O)cc3F)c2O1` (stereo not drawn) [Example 41, 2-(2-(4-((5-chloro-2,2-dimethyl-2,3-dihydrobenzofuran-7-yl)methoxy)-3,5-difluorophenyl)cyclopropyl)acetic acid], the activity at 2.5 µM worked out at 116%. On the same count and under the same terms, under `CC(Cc1cc(F)c(OCc2c(F)c(F)cc3c2OC(C)(C)C3)c(F)c1)C(=O)O` (stereo not drawn) [Example 42, 3-(4-((5,6-difluoro-2,2-dimethyl-2,3-dihydrobenzofuran-7-yl)methoxy)-3,5-difluorophenyl)-2-methylpropanoic acid] stands 141%.

Staying with this experiment, now noted: HEK293, % activity at 5 µM compared to the maximal activity of GW9508 at 6.7 µM (=100%); HEK293 cells co-expressing Gqi5; read-out: %Activity (GW9508 Reference Compound).
Take `CC(Cc1cc(F)c(OCc2ccc(F)c3c2OC(C)(C)C3)c(F)c1)C(=O)O` (stereo not drawn) [Example 28, 3-(3,5-difluoro-4-((4-fluoro-2,2-dimethyl-2,3-dihydrobenzofuran-7-yl)methoxy)phenyl)-2-methylpropanoic acid]: the activity at 5 µM was 110%. Same read-out and setting: in the case of `CC(Cc1ccc(OCc2ccc(F)c3c2OC(C)(C)C3)c(F)c1)C(=O)O` (stereo not drawn) [Example 29, 3-(3-fluoro-4-((4-fluoro-2,2-dimethyl-2,3-dihydrobenzofuran-7-yl)methoxy)phenyl)-2-methylpropanoic acid] it was 134%; in that of `CC(Cc1ccc(OCc2ccc(F)c3c2OC(C)(C)C3)cc1)C(=O)O` (stereo not drawn) [Example 30, 3-(4-((4-fluoro-2,2-dimethyl-2,3-dihydrobenzofuran-7-yl)methoxy)phenyl)-2-methylpropanoic acid], 177%; in that of `CC1(C)Cc2c(C(F)(F)F)ccc(COc3c(F)cc(C4CC4C(=O)O)cc3F)c2O1` (stereo not drawn) [Example 31, 2-(4-((2,2-dimethyl-4-(trifluoromethyl)-2,3-dihydrobenzofuran-7-yl)methoxy)-3,5-difluorophenyl)cyclopropanecarboxylic acid], 150%. Take `CC(Cc1cc(F)c(OCc2ccc(C(F)(F)F)c3c2OC(C)(C)C3)c(F)c1)C(=O)O` (stereo not drawn) [Example 32, 3-(4-((2,2-dimethyl-4-(trifluoromethyl)-2,3-dihydrobenzofuran-7-yl)methoxy)-3,5-difluorophenyl)-2-methylpropanoic acid]: the activity at 5 µM was 143%. Still for that read-out and setting: in the case of `CC(Cc1ccc(OCc2ccc(C(F)(F)F)c3c2OC(C)(C)C3)c(F)c1)C(=O)O` (stereo not drawn) [Example 33, 3-(4-((2,2-dimethyl-4-(trifluoromethyl)-2,3-dihydrobenzofuran-7-yl)methoxy)-3-fluorophenyl)-2-methylpropanoic acid] it was 143%. On the same count and under the same terms, in the case of `CC(Cc1ccc(OCc2ccc(C(F)(F)F)c3c2OC(C)(C)C3)cc1)C(=O)O` (stereo not drawn) [Example 34, 3-(4-((2,2-dimethyl-4-(trifluoromethyl)-2,3-dihydrobenzofuran-7-yl)methoxy)phenyl)-2-methylpropanoic acid] it was 118%; in that of `CC1(C)Cc2cc(F)cc(COc3ccc4c(c3)CCC4CC(=O)O)c2O1` (stereo not drawn) [Example 37, 2-(5-((5-fluoro-2,2-dimethyl-2,3-dihydrobenzofuran-7-yl)methoxy)-2,3-dihydro-1H-inden-1-yl)acetic acid], 125%. Regarding `CC(Cc1cc(F)c(OCc2cc(Cl)cc3c2OC(C)(C)C3)c(F)c1)C(=O)O` (stereo not drawn) [Example 38, 3-(4-((5-chloro-2,2-dimethyl-2,3-dihydrobenzofuran-7-yl)methoxy)-3,5-difluorophenyl)-2-methylpropanoic acid], the activity at 5 µM was 83.4%. Same read-out and setting: in the case of `CC(Cc1cc(F)c(OCc2cccc3c2OC(C)C3C)c(F)c1)C(=O)O` (stereo not drawn) [Example 40, 3-(4-((2,3-dimethyl-2,3-dihydrobenzofuran-7-yl)methoxy)-3,5-difluorophenyl)-2-methylpropanoic acid] it was 95.3%.

The same experiment, now with this note: eight concentrations from 0.00001 to 20 µM; changes (Max-Min) of fluorescence intensity.
For the molecule `CC(Cc1ccc(OCc2ccc(C(F)(F)F)c3c2OC(C)(C)C3)cc1)C(=O)O` (stereo not drawn) [Example 34, 3-(4-((2,2-dimethyl-4-(trifluoromethyl)-2,3-dihydrobenzofuran-7-yl)methoxy)phenyl)-2-methylpropanoic acid], the EC50 was over 10 µM. On the same count and under the same terms, under `CC(Cc1cc(F)c(OCc2c(F)c(F)cc3c2OC(C)(C)C3)c(F)c1)C(=O)O` (stereo not drawn) [Example 42, 3-(4-((5,6-difluoro-2,2-dimethyl-2,3-dihydrobenzofuran-7-yl)methoxy)-3,5-difluorophenyl)-2-methylpropanoic acid] stands 1 to 10 µM. Still for that read-out and setting: under `CC(Cc1ccc(OCc2c(F)c(F)cc3c2OC(C)(C)C3)cc1)C(=O)O` (stereo not drawn) [Example 43, 3-(4-((5,6-difluoro-2,2-dimethyl-2,3-dihydrobenzofuran-7-yl)methoxy)phenyl)-2-methylpropanoic acid] stands over 10 µM.
